Reference: the CheMixHub viscosity set

Assay: xn = mol fraction of the nth substance listed

CCCCCCCCCCCC(=O)OC + CCCCCCCCCC(=O)OCC
viscosity [mPa·s], 100 kPa
Conditions	298.15 K	308.15 K	318.15 K
x2 = 0.04836	2.784	2.203	1.856
x2 = 0.1051	2.725	2.165	1.824
x2 = 0.1954	2.649	2.106	1.778
x2 = 0.3128	2.556	2.041	1.723
x2 = 0.4082	2.482	1.988	1.677
x2 = 0.5008	2.417	1.945	1.639
x2 = 0.5987	2.348	1.897	1.601
x2 = 0.6571	2.307	1.87	1.582
x2 = 0.7044	2.274	1.849	1.567
x2 = 0.8	2.211	1.806	1.533
x2 = 0.8986	2.147	1.763	1.497

CCOC(C)=O + c1ccccc1
Conditions	viscosity [mPa·s]
298 K, 101.3 kPa, x2 = 0.1715	0.478
298 K, 101.3 kPa, x2 = 0.3251	0.489
298 K, 101.3 kPa, x2 = 0.5324	0.507
298 K, 101.3 kPa, x2 = 0.6702	0.534
298 K, 101.3 kPa, x2 = 0.8535	0.57
298.15 K, 101 kPa, x1 = 0.0447	0.588
298.15 K, 101 kPa, x1 = 0.1505	0.556
298.15 K, 101 kPa, x1 = 0.2473	0.5181
298.15 K, 101 kPa, x1 = 0.2482	0.531
298.15 K, 101 kPa, x1 = 0.3049	0.499
298.15 K, 101 kPa, x1 = 0.3312	0.499
298.15 K, 101 kPa, x1 = 0.351	0.507
298.15 K, 101 kPa, x1 = 0.4099	0.483
298.15 K, 101 kPa, x1 = 0.4481	0.489
298.15 K, 101 kPa, x1 = 0.453	0.4803
298.15 K, 101 kPa, x1 = 0.461	0.4782
298.15 K, 101 kPa, x1 = 0.4981	0.48
298.15 K, 101 kPa, x1 = 0.5495	0.472
298.15 K, 101 kPa, x1 = 0.6517	0.458
298.15 K, 101 kPa, x1 = 0.7368	0.4446
298.15 K, 101 kPa, x1 = 0.7524	0.446
298.15 K, 101 kPa, x1 = 0.8551	0.437
298.15 K, 101 kPa, x1 = 0.9445	0.431
298.15 K, 101 kPa, x2 = 0.1725	0.442
298.15 K, 101 kPa, x2 = 0.5441	0.487
298.15 K, 101 kPa, x2 = 0.826	0.551
308.15 K, 101 kPa, x1 = 0.0447	0.515
308.15 K, 101 kPa, x1 = 0.1505	0.492
308.15 K, 101 kPa, x1 = 0.2482	0.472
308.15 K, 101 kPa, x1 = 0.351	0.455
308.15 K, 101 kPa, x1 = 0.4481	0.44
308.15 K, 101 kPa, x1 = 0.4981	0.433
308.15 K, 101 kPa, x1 = 0.5495	0.426
308.15 K, 101 kPa, x1 = 0.6517	0.415
308.15 K, 101 kPa, x1 = 0.7524	0.405
308.15 K, 101 kPa, x1 = 0.8551	0.396
308.15 K, 101 kPa, x1 = 0.9445	0.39
318 K, 101.3 kPa, x2 = 0.1624	0.3894
318 K, 101.3 kPa, x2 = 0.3233	0.3971
318 K, 101.3 kPa, x2 = 0.5251	0.4129
318 K, 101.3 kPa, x2 = 0.671	0.4287
318 K, 101.3 kPa, x2 = 0.8633	0.4505

OCC(O)CO + CCO
298.15 K, 101 kPa
Conditions	viscosity [mPa·s]
x1 = 0.053	1.52
x1 = 0.11	2.23
x1 = 0.18	3.49
x1 = 0.25	5.83
x1 = 0.33	10.4
x1 = 0.43	20.6
x1 = 0.54	45.3
x1 = 0.67	103.3
x1 = 0.82	254

CC(C)(C)N1CCCC1=O + O
298.16 K, 101 kPa
Conditions	viscosity [mPa·s]
x1 = 0.1105	3.47
x1 = 0.261	4.04
x1 = 0.4035	4.76
x1 = 0.5487	5.49
x1 = 0.6233	5.79
x1 = 0.6749	5.86
x1 = 0.7189	5.81
x1 = 0.7798	5.44
x1 = 0.8652	4.22

CCOC(C)=O + CCCCCCC
296 K, 101.3 kPa
Conditions	viscosity [mPa·s]
x1 = 0.0713	0.391
x1 = 0.1748	0.385
x1 = 0.2448	0.382
x1 = 0.3468	0.382
x1 = 0.4832	0.383
x1 = 0.4946	0.381
x1 = 0.5009	0.382
x1 = 0.5867	0.387
x1 = 0.6508	0.392
x1 = 0.7653	0.403
x1 = 0.8485	0.413
x1 = 0.8885	0.42
